Patent US11696913B2, “Prolonged ectoparasite-controlling agent for animal” (MITSUI CHEMICALS AGRO, INC., priority 2017, dated 2023)

What was measured:
Dermacentor variabilis = test: In vitro contact test with adult hard ticks (Dermacentor variabilis); settings: read-out: acaricidal activity; for pest or weed control at 0.2 µg/cm2, 0.2 µg/cm2: dose 0.2 μg/cm^2, 48 h; for pest or weed control at 1 µg/cm2, 1 µg/cm2: dose 1 μg/cm^2, 48 h
How it was run: (§1)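 Acaricidal activity = % ticks dead or moribund after 48 h contact with acetone-deposited compound on vial walls (e.g., 900 ppm solution → 5 μg/cm^2). Ambient conditions for R. sanguineus, 21° C./85% rel. hum. for other species; heat challenge at 45-50° C. separated climbers from moribund ticks.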

Ctenocephalides felis [1] = test: In vitro contact test with fleas; settings: read-out: insecticidal activity; for pest or weed control at 0.04 µg/cm2, 0.04 µg/cm2: dose 0.04 μg/cm^2, dead or moribund fleas after 48 h; for pest or weed control at 0.2 µg/cm2, 0.2 µg/cm2: dose 0.2 μg/cm^2, dead or moribund fleas after 48 h; for pest or weed control at 1 µg/cm2, 1 µg/cm2: dose 1 μg/cm^2, dead or moribund fleas after 48 h
How it was run: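 Activity is the percentage of fleas dead or moribund at 48 h, judged by immobility or uncoordinated movement after tapping. Tubes were coated by evaporating acetone solutions (900 ppm gives 5 μg/cm^2), then held 5-10 adult fleas of both sexes at room temperature and ambient humidity.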

Rhipicephalus sanguineus = test: In vitro contact test with adult hard ticks (Rhipicephalus sanguineus); settings: read-out: acaricidal activity; for pest or weed control at 0.2 µg/cm2, 0.2 µg/cm2: dose 0.2 μg/cm^2, 48 h; for pest or weed control at 1 µg/cm2, 1 µg/cm2: dose 1 μg/cm^2, 48 h
How it was run: as §1

Spodoptera litura = test: Insecticidal testing against common cutworm; type: in vivo; settings: foliar, 144 h, concentration 100 ppm, cabbage leaf dip, second-stage larvae, after 6 days, read-out: pesticidal rate
Text: Insecticidal Testing Against Common Cutworm (Spodoptera litura)

Plutella xylostella = test: Insecticidal testing against diamondback moth; type: in vivo; settings: foliar, 144 h, concentration 100 ppm, cabbage leaf dip, third-stage larvae, after 6 days, read-out: pesticidal rate
Text: Insecticidal Testing Against Diamondback Moth (Plutella xylostella)

Laodelphax striatellus = test: Insecticidal testing against small brown planthopper; type: in vivo; settings: 144 h, concentration 100 ppm, sprayed rice seedlings, after 6 days, read-out: pesticidal rate
Protocol: Insecticidal Testing Against Small Brown Planthopper (Laodelphax striatellus)
An additional test was carried out with 10 small brown planthoppers by preparing an acetone solution of the testing compound diluted to a predetermined concentration, spraying the solution onto rice seedlings and air drying the rice seedlings. The medicament was all used as received. The rice seedlings were placed in a constant-temperature room at 25° C., and the survival rate was investigated after 6 days. The test was carried out by means of one group of 10 pests.

[2] = test system: Rhipicephalus (Boophilus) microplus; test: In vitro injection test with Rhipicephalus (Boophilus) microplus (BOOPMI Inj); settings: 168 h, laid fertile eggs after 7 days, read-out: acaricidal activity; for pest or weed control at 32 ng: dose 0.032 μg/animal injected; for pest or weed control at 0.00016 mg: dose 0.16 μg/animal injected; for pest or weed control at 0.0008 mg: dose 0.8 μg/animal injected
How it was run: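 Five engorged adult females each get a 1 μl abdominal injection of compound dissolved and diluted in DMSO. Kept 7 days at 28° C./85% rel. hum.; percent activity rates egg laying and egg fertility (0% all fertile, 100% none laid or infertile).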

Ctenocephalides felis [3] = test: Ctenocephalides felis in-vitro feeding test with fleas (CTECFE oral); settings: 48 hours, read-out: insecticidal feeding activity; for pest or weed control at 0.032 ppm: dose 0.032 ppm in citrated cattle blood; for pest or weed control at 0.16 ppm: dose 0.16 ppm in citrated cattle blood; for pest or weed control at 0.8 ppm: dose 0.8 ppm in citrated cattle blood; for pest or weed control at 4 ppm: dose 4 ppm in citrated cattle blood
How it was run: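 Scored as percent fleas killed (0–100%) 48 hours after feeding began. Compound, dissolved in DMSO and diluted into citrated cattle blood, was offered via a parafilm membrane to roughly 20 adult male and female C. felis at about 37° C.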

Amblyomma americanum = test: In vitro contact test with hard ticks (Amblyomma americanum nymphs); settings: read-out: acaricidal activity; for pest or weed control at 1 µg/cm2, 1 µg/cm2: dose 1 μg/cm^2, 48 h
How it was run: as §1

Structure (SMILES)	pest or weed control at 0.2 µg/cm2, 0.2 µg/cm2 (Dermacentor variabilis) [%]	pest or weed control at 1 µg/cm2, 1 µg/cm2 (Dermacentor variabilis) [%]	pest or weed control at 0.04 µg/cm2, 0.04 µg/cm2 (Ctenocephalides felis [1]) [%]	pest or weed control at 0.2 µg/cm2, 0.2 µg/cm2 (Ctenocephalides felis [1]) [%]	pest or weed control at 1 µg/cm2, 1 µg/cm2 (Ctenocephalides felis [1]) [%]	pest or weed control at 0.2 µg/cm2, 0.2 µg/cm2 (Rhipicephalus sanguineus) [%]	pest or weed control at 100 ppm (Spodoptera litura) [%]	pest or weed control at 100 ppm (Plutella xylostella) [%]	pest or weed control at 100 ppm (Laodelphax striatellus) [%]	pest or weed control at 32 ng [2] [%]	pest or weed control at 0.00016 mg [2] [%]	pest or weed control at 0.0008 mg [2] [%]	pest or weed control at 0.032 ppm (Ctenocephalides felis [3]) [%]	pest or weed control at 0.16 ppm (Ctenocephalides felis [3]) [%]	pest or weed control at 0.8 ppm (Ctenocephalides felis [3]) [%]	pest or weed control at 4 ppm (Ctenocephalides felis [3]) [%]	pest or weed control at 1 µg/cm2, 1 µg/cm2 (Amblyomma americanum) [%]	pest or weed control at 1 µg/cm2, 1 µg/cm2 (Rhipicephalus sanguineus) [%]	pest or weed control at 0.2 µg/cm2, 0.2 µg/cm2 (Amblyomma americanum; dose 0.2 μg/cm^2, 48 h) [%]
CN(C(=O)c1ccc(C(F)(F)F)nc1)c1cccc(C(=O)Nc2c(I)cc(C(F)(C(F)(F)F)C(F)(F)F)cc2OC(F)F)c1F [Compound 107]	90	90	95	95	95	90	≥ 70	≥ 70	≥ 70	100	100	100	95	95	95	95	–	–	–
CN(C(=O)c1ccc(C(F)(F)F)cc1)c1cccc(C(=O)Nc2c(I)cc(C(F)(C(F)(F)F)C(F)(F)F)cc2C(F)(F)F)c1F [Compound 59]	–	–	–	95	95	90	≥ 70	≥ 70	≥ 70	100	100	100	–	95	95	95	90	90	–
Cc1ccc(C(=O)N(C)c2cccc(C(=O)Nc3c(I)cc(C(F)(C(F)(F)F)C(F)(F)F)cc3C(F)(F)F)c2F)cc1 [Compound 58]	–	–	95	95	95	–	≥ 70	≥ 70	≥ 70	100	100	100	–	–	95	95	90	90	90
CN(C(=O)c1ccc([N+](=O)[O-])cc1)c1cccc(C(=O)Nc2c(I)cc(C(F)(C(F)(F)F)C(F)(F)F)cc2C(F)(F)F)c1F [Compound 54]	90	90	95	95	95	90	≥ 70	≥ 70	≥ 70	100	100	100	95	95	95	95	–	90	–
CN(C(=O)c1ccc(C(F)(F)F)nc1)c1cccc(C(=O)Nc2c(Br)cc(C(F)(C(F)(F)F)C(F)(F)F)cc2OC(F)(F)F)c1F [Compound 98]	90	90	–	95	95	–	≥ 70	≥ 70	≥ 70	–	100	100	–	–	95	95	–	–	–
